Key:
[1] = tested on: type I NKT cell; conditions: description, no example; also in the absence of antigen-presenting cells; cited from earlier work
[2] = tested on: liver damage caused by alcohol consumption; conditions: description, no example; cited from earlier work
[3] = tested on: conventional MHC-restricted CD4+ T cells; conditions: description, no example; cited from earlier work
[4] = tested on: chronic experimental autoimmune encephalomyelitis (EAE); experiment: EAE, oral sulfatide; type: in vivo, B6 mice; conditions: oral 200 micrograms for 7 days, starting one day before disease induction
From the text: However as shown in FIG. 6 oral treatment with sulfatide though inhibits disease initially when given orally but not very efficient. Without being limited by any theory, it is contemplated that sulfatide is not very stable in the gut, which is consistent with the observed low efficiency. With reference to FIG. 6, groups of B6 mice were orally treated with sulfatide (200 micrograms in 200 microliters in PBS) for 7 days, starting one day before the disease induction. Clinical paralysis was monitored daily and scored from 1 to 5. […] Without being limited by any theory, the observed similarity of both groups in consistent with instability of sulfatide in the gut.

[5] = tested on: ConA-induced hepatitis; conditions: description, no example; cited from earlier work
[6] = tested on: hepatic ischemia and reperfusion injury; conditions: cited from earlier work
[7] = tested on: chronic and relapsing experimental autoimmune encephalomyelitis (EAE); experiment: chronic and relapsing EAE; type: in vivo, SJL mice
Description: Groups of SJL mice were orally gavaged with miltefosine (1 mg in 200 microliters of 10% DMSO/PBS) or control (DMSO/PBS), twice a week as indicated by arrows. Clinical severity of disease was monitored daily as paralysis in both groups of mice from scale 1 to 5 and shown.

[8] = tested on: type I NKT cells; sulfatide/CD1d-tetramer+ cells; conditions: after administration in vivo; cited from earlier work
[9] = tested on: type I NKT cells; experiment: alpha-GalCer stimulation of splenocytes from orally treated mice; type: in vivo, B6 mice; conditions: 1 mg oral gavage daily for 7 days; splenocytes cultured 90 hrs; 10 ng/ml alpha-GalCer
Description: Naïve B6 mice were treated every day for 7 days with DMSO (Control) or Miltefosine 1 mg (dissolved in DMSO and diluted into PBS), using oral gavage. Splenocytes were cultured in vitro for 90 hrs in the presence or absence of alpha-GalCer. Stimulation (as stimulation Index) and expansion of type I NKT cells (as FACS staining with alpha-GalCer/CD1d^−tetramer^+ cells) at 10 ng/ml of alpha-GalCer concentration is shown in both FIG. 2A and FIG. 2B.

[10] = tested on: type II NKT cell hybridoma, Hy19.3; experiment: plate-bound CD1d assay: IL-2 from type II NKT cell hybridoma; type: cell-based; conditions: CD1d coated plates incubated with lipid 6 hr; 50,000 cells/well; IL-2 measured 16 hr later
Description: (§1) The CD1d protein coated 96-well plates were incubated with the indicated lipids for 6 hr, washed and a type II NKT cell Hy 19.3 was added (50,000 cells/well) and IL-2 measured 16 hr later in the supernatant. LSF, lysosulftatide; LPC, lysophosphatidylcholine.

[11] = biological target: T1, CD1d (Mus musculus, UniProt P11609); experiment: plate-bound CD1d assay: binding to CD1d; conditions: concluded from plate-bound CD1d assay
T1 sequence (P11609 19-297 limits assumed): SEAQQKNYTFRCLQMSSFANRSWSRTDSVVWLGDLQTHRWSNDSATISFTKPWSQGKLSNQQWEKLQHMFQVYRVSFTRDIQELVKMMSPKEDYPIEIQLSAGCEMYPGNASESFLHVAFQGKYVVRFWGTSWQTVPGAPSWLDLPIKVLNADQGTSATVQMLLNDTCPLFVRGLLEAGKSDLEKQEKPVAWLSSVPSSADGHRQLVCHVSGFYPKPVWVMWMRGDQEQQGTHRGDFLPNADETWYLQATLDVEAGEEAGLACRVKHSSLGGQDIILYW
T1 sequence (P01887 21-119 partner): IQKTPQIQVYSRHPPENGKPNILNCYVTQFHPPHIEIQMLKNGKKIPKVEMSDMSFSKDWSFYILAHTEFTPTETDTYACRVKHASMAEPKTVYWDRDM
Description: as §1

[12] = tested on: alcoholic liver diseases (ALD); experiment: alcoholic liver disease, chronic plus binge EtOh feeding; type: in vivo, C57BL/6 mice
From the text: Groups of C57BL/6 mice were fed liquid alcohol (EtOh) diet or isocaloric control (control) diet for 10 day either containing miltefosine (˜500 micrograms per day) or DMSO/PBS. On day 11, 9 hr after the binge (chronic plus binge feeding), accumulation and activation of type I NKT cells (alpha-GalCer/CD1d^−tetramer^+ cells) or neutrophils (Ly^−6 G^+ CD11b^+) were examined in liver. As shown in FIG. 4A and FIG. 4B, in comparison to the control diet group, type I NKT cells accumulate into liver in mice fed liquid chronic plus binge EtOh diet. Also as shown in FIG. 4C and FIG. 4D, type I NKT cells become activated (as examined by the expression of CD69 cell surface expression in alpha-GalCer/CD1d-tetrame^+ cells) accompanied by accumulation of neutrophils (Ly^−6 G^+ CD11b^+ cells) into liver. Accumulation of activated type I NKT cells and neutrophils leads to inflammatory cascade resulting in heaptocyte injury during ALD.

[13] = tested on: liver mononuclear cells; experiment: flow cytometry of liver mononuclear cells after oral treatment; type: in vivo, SJL/J mice; conditions: 1 mg orally before and during disease; day 59
Description: Groups of female SJL/J mice were administered orally with 1 mg of miltefosine as shown in the FIG. 2, before and during the course of disease. Mice were sacrificed on day 59.

[14] = tested on: ConA-induced hepatitis; experiment: ConA-induced hepatitis; type: in vivo, BL/6 mice
Description: Groups of BL/6 mice were either administered with DMSO/PBS or miltefosine 12 hr before ConA administration and liver injury was determined by H&E staining of liver sections and liver enzymes, such as ALT in serum examined 24 hr later (FIG. 3A and FIG. 3B). Data shown are representative of 2 independent experiments.

[15] = ~500 micrograms per day in EtOh diet 10 day, day 11, 9 hr after binge

CC1=C(/C=C/C(C)=C/C=C/C(C)=C/C(=O)O)C(C)(C)CCC1 [ATRA, all trans retinoic acid]
type I NKT cell effector function, including cytokine secretion [1]: inhibits type I NKT cell effector function | liver damage following excess alcohol consumption [2]: significantly inhibits liver damage | activity of conventional MHC-restricted CD4+ T cells that recognize protein antigens [3]: does not directly inhibit

3′-sulfogalactosyl ceramide [sulfatide]
duration of initial protection from clinical paralysis [4]: 4 to 5 days | protection against ConA-induced hepatitis (hepatocellular necrosis, serum ALT and AST) [5]: can protect against Concanavalin A (ConA)-induced hepatitis | liver damage following excess alcohol consumption [2]: almost complete protection from liver damage | secretion of IFN-gamma by hepatic type I NKT cells ([6]; early phase of ischemia and reperfusion injury, vs untreated animals): significantly decreased | liver injury following ischemia/reperfusion ([6]; mice treated with sulfatide): significantly reduced | chronic and relapsing EAE ([7]; SJL/J mice, route not stated): significant inhibition | in vitro proliferation of type I NKT cells in response to alpha-GalCer [8]: suppress in vitro proliferation of type I NKT cells | percentage of sulfatide/CD1d-tetramer+ cells with intracytoplasmic IFN-gamma staining [8]: increase the percentage of sulfatide/CD1d-tetramer+ cells with intracytoplasmic IFN-gamma staining

CCCCCCCCCCCCCCCCOP(=O)([O-])OCC[N+](C)(C)C [miltefosine]
type I NKT cells proliferation and expansion in the presence of alpha-GalCer [9]: significant inhibition | stimulation of type II NKT cell hybridoma Hy19.3 (IL-2 in the supernatant) [10]: able to stimulate | binding to CD1d molecules [11]: can bind to CD1d molecules | liver injury ([12]; ~500 micrograms per day in EtOh diet): protection from liver injury | accumulation of type I NKT cells in liver [12, 15]: inhibited accumulation of type I NKT cells | levels of activated (CD69+) type I NKT cells in liver [12, 15]: reduced levels of activated (CD69^+) NKT cells | levels of neutrophils (Ly-6G+ CD11b+) in liver [12, 15]: reduced levels of neutrophils | clinical severity of disease (paralysis, scale 1 to 5) ([7]; oral gavage 1 mg twice a week): can be treated with miltefosine | other CD4+ and CD8αβ+ T cells in liver, control vs. treated [13]: not different | regulatory CD8αα+ T cells in liver [13]: significantly increased | serum levels of ALT ([14]; given 12 hours before ConA, 24 hours later): reduced serum levels of ALT | liver injury following Con A injection ([14]; given 12 hr before ConA): significant inhibition of liver injury | necrosis, H&E staining of liver sections ([14]; given 12 hr before ConA): decreased necrosis

Source: patent US20160158258A1, “PREVENTION AND TREATMENT OF INFLAMMATORY CONDITIONS” (GLYCOREGIMMUNE, INC., priority 2014, published 2016)
